Reference: patent US6046186A, “Estrone sulfamate inhibitors of estrone sulfatase, and associated pharmaceutical compositions and methods of use” (SRI International, priority 1997, dated 2000)
Read-outs that look alike come from different tables or passages of the source.

Legend:
uterus = assay: Uterotrophic assay (estrogenic activity from uterine weights); format: in vivo, Sprague Dawley rats; set-up: scale not given here; conditions: female rats, test compound alone once daily for 7 days, s.c. or oral gavage; uterine weight vs vehicle control
Description: B. Uterotrophic and antiuterotrophic assays
Sprague Dawley rates are obtained from Simmonsen Laboratories, Gilroy, Calif. Estradiol benzoate may be purchased from Sigma Chemical Co., St. Louis, Mo.
The procedure of Wakeling et al., Endocrinology 99:447453 (1983) is followed. Female Sprague Dawley rats weighing 40-50 grams are used for the experiment. In general, animals are quarantined for 3 days after arrival at the experimental site.
Rats are initially weighed and randomly divided into groups with 5 animals in each group. For the uterotrophic assay, animals are dosed once daily with various doses of test compounds in 0.1 or 1.0 ml of sterile saline via subcutaneous injection or oral gavage, respectively. For the antiuterotrophic assay, animals are dosed once daily with the same doses indicated above plus 0.5 μg/rat of estradiol benzoate alone.
The animals are treated for 7 days. On day 8, animals are weighed and then sacrificed. The uterus of each animal is removed immediately after death and weighed; fat materials are trimmed off prior to weighing.
A comparison of uterine weights from the groups receiving test compound alone with those of the vehicle control group gives the estrogenic activity. Antiestrogenic activity is obtained by comparing the uterine weights from the groups receiving test compound plus estradiol with those of the estradiol control group.

Estrone Sulfatase = molecular target: T1, Estrone Sulfatase (Homo sapiens, UniProt P08842); assay: Effects of Inhibitors on Estrone Sulfatase Activity in MCF-7 Cells; format: cell-based
T1 construct: endogenous in cells; host or cells: MCF-7 human breast cancer cells (American Type Culture Collection)
T1 sequence (P08842 22-583): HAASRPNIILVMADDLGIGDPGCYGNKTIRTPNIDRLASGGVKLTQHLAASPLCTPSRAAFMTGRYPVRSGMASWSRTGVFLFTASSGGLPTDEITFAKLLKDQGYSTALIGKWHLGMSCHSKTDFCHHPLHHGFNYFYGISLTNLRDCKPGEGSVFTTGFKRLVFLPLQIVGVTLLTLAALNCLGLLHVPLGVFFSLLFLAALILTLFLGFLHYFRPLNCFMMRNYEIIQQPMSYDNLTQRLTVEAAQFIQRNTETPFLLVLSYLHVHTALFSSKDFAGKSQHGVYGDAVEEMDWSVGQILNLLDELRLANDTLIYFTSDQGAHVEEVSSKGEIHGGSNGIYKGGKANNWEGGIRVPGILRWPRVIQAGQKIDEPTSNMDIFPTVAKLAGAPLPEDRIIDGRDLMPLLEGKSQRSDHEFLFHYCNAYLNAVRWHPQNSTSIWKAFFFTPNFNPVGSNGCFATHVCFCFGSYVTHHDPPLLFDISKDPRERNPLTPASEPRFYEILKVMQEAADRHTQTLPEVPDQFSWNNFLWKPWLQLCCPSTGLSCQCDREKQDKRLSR
Description: A. Effects of Inhibitors on Estrone Sulfatase Activity in MCF-7 Cells
Reagents: MCF-7 human breast cancer cell line was supplied by the American Type Culture Collection, Rockville, MD. Eagle's minimum essential medium (MEM) and fetal calf serum (FCS) were purchased from Sigma Chemical Company, St. Louis, Mo. [4-^14 C]Estrone, [6,7-^3 H]estradiol and [6,7-^3 H](N)estrone sulfate were obtained from New England Nuclear Research Products, Boston, Mass.
Procedure: The method of Duncan et al., Cancer Res. 53:298-303 (1993) was employed. MCF-7 cells were seeded in 60 mm×15 mm culture dishes at 1×10^5 cells/dish and maintained in 4.0 ml of MEM containing 2 mM glutamine and 5% FCS. The cells were incubated at 37° C. in an atmosphere of 5% CO2 /95% air and 100% humidity, with the medium changed every third day. When the cells reached 80% confluency, the intact monolayers were washed once with Earl's balanced salt solution and incubated in 4.0 ml of serum and phenol re-free MEM containing either the substrate (^3 H-estrone sulfate, 7 pmol, 9×10^5 dpm) and inhibitor dissolved in ethanol, or ethanol alone. The fmal ethanol concentration was always below 1%. The incubation continued under the regular conditions for 24 h. At the end of 24 h, 2.0 ml of medium was transferred into separate tubes containing 7×10^3 dpm of ^14 C-estrone. The mixture was vortexed vigorously for 60 s with 5 ml of toluene. After phase separation, 2.0 ml of the organic phase was transferred into a counting vial for scintillation counting. The amount of estrone sulfate hydrolyzed was calculated on the basis of ^3 H counts obtained, with the added ^14 C-estrone counts used to correct for recovery through the extraction procedure.
The cells remaining in each culture dish were washed once with saline and then scraped with 1.0 ml of 0.5 N NaOH into 10×75 mm tubes. The cell pellets in each tube was incubated at 50° C. for 20 min to ensure that digestion was complete and all proteins had became soluble. An aliquot was then taken for protein determination by Lowry's method (Lowry et al., J. Biol. Chem. 193:265-275 (1951)).
The percentage of inhibition was determined by evaluating the quantity of estrone sulfate hydrolyzed with the inhibitor relative to that without the inhibitor.
As a general practice, all available inhibitors were first tested at 100 μM; the ones showing inhibitory effects at that concentration were tested again at various concentrations to obtain the IC50 values.

[1] = intact MCF-7 human breast cancer cells, 3H-estrone sulfate substrate, 24 h, 37° C., read-out: Estrone Sulfatase Inhibitory Activity IC50

SMILES: CC/C=C1/CC[C@H]2[C@@H]3CCc4cc(OS(N)(=O)=O)ccc4[C@H]3CC[C@]12C [Compound 15, [17(20)Z]-Propylideneestra-1,3,5(10)-triene-3-O-sulfamate]
- Estrogenic Activity (uterus): 0.30
- IC50 (Estrone Sulfatase; [1]): 0.038 nM

SMILES: CC12CC(=O)C3=Cc4ccc(OS(N)(=O)=O)cc4CCC3C1CCC2=O (stereo not drawn) [Compound 99, β-Homo-9-(10-19)-abeoestra-1,3,5(10),9(19)-tetraen-11,17-dione-3-O-sulfamate]
- Estrogenic Activity (uterus): 0
- IC50 (Estrone Sulfatase; [1]): 26 nM

SMILES: C#CC1=CC[C@H]2[C@@H]3CCc4cc(OS(N)(=O)=O)ccc4[C@H]3CC[C@]12C [Compound 5, 19-Norpregna-1,3,5(10),16-tetraen-20-yne-3-O-sulfamate]
- Estrogenic Activity (uterus): 0.40
- IC50 (Estrone Sulfatase; [1]): 0.25 nM

SMILES: CCC[C@H]1CC[C@H]2[C@@H]3CCc4cc(OS(N)(=O)=O)ccc4[C@H]3CC[C@]12C [Compound 21, 17β-Propylestra-1,3,5(10)-triene-3-O-sulfamate]
- Estrogenic Activity (uterus): 0
- IC50 (Estrone Sulfatase; [1]): 0.034 nM

SMILES: COc1cc2c(cc1OS(N)(=O)=O)CC[C@@H]1[C@@H]2CC[C@]2(C)C(=O)CC[C@@H]12 [Compound 67, 2-Methoxyestra-1,3,5(10)-trien-17-one-3-O-sulfamate]
- Estrogenic Activity (uterus): 0
- IC50 (Estrone Sulfatase): 0.016 nM

SMILES: CC[C@H]1CC[C@H]2[C@@H]3CCc4cc(OS(N)(=O)=O)ccc4[C@H]3CC[C@]12C [Compound 19, 19-Norpregna-1,3,5(10)-triene-3-O-sulfamate]
- Estrogenic Activity (uterus): 0.54
- IC50 (Estrone Sulfatase; [1]): 0.02 nM

SMILES: C/C=C1/CC[C@H]2[C@@H]3CCc4cc(OS(N)(=O)=O)c(OC)cc4[C@H]3CC[C@]12C [Compound 69, 2-Methoxy-[17(20)Z]-19-norpregna-1,3,5(10),17(20)-tetraene-3-O-sulfamate]
- Estrogenic Activity (uterus): 0
- IC50 (Estrone Sulfatase; [1]): 2.5 nM

SMILES: C[C@]12CC[C@@H]3c4ccc(OS(N)(=O)=O)cc4CC[C@H]3[C@@H]1CCC2=C(C#N)C#N [Compound 36, 20-Cyano-19-norpregna-1,3,5(10),17(20)-tetraene-21-nitrile-3-O-sulfamate]
- Estrogenic Activity (uterus): 0.44
- IC50 (Estrone Sulfatase; [1]): 0.09 nM

SMILES: CN(C)Cc1cc2c(cc1OS(N)(=O)=O)CC[C@@H]1[C@@H]2CC[C@]2(C)C(=O)CC[C@@H]12 [Compound 73, 2-Dimethylaminomethylestra-1,3,5(10)-trien-17-one-3-O-sulfamate]
- Estrogenic Activity (uterus): 0
- IC50 (Estrone Sulfatase; [1]): > 1000 nM

SMILES: CC/C=C1\CC[C@H]2[C@@H]3CCc4cc(OS(N)(=O)=O)ccc4[C@H]3CC[C@]12C [Compound 28, [17(20)E]-Propylideneestra-1,3,5(10)-triene-3-O-sulfamate]
- Estrogenic Activity (uterus): 0.20
- IC50 (Estrone Sulfatase; [1]): 0.027 nM

SMILES: CN(C)c1cc2c(cc1OS(N)(=O)=O)CC[C@@H]1[C@@H]2CC[C@]2(C)C(=O)CC[C@@H]12 [Compound 83, 2-Dimethylaminoestra-1,3,5(10)-trien-17-one-3-O-sulfamate]
- Estrogenic Activity (uterus): 0
- IC50 (Estrone Sulfatase; [1]): 270 nM

SMILES: CCOC(=O)/C=C1/CC[C@H]2[C@@H]3CCc4cc(OS(N)(=O)=O)ccc4[C@H]3CC[C@]12C [Compound 32, Ethyl 3-Sulfamoyloxy-[17(20)Z]-19-norpregna-1,3,5(10),17(20)-tetraen-21-oate]
- Estrogenic Activity (uterus): 0
- IC50 (Estrone Sulfatase; [1]): 2.7 nM

SMILES: CC(=O)Nc1c(OS(N)(=O)=O)ccc2c1CC[C@@H]1[C@@H]2CC[C@]2(C)C(=O)CC[C@@H]12 [Compound 96, 4-Acetoamideestra-1,3,5(10)-trien-17-one-3-O-sulfamate]
- Estrogenic Activity (uterus): 0
- IC50 (Estrone Sulfatase; [1]): 290 nM

SMILES: CN(C)CCCO[C@H]1CC[C@H]2[C@@H]3CCc4cc(OS(N)(=O)=O)ccc4[C@H]3CC[C@]12C [Compound 47, 17β-(3'-N,N-Dimethylaminopropoxy)estra-1,3,5(10)-triene-3-O-sulfamate]
- Estrogenic Activity (uterus): 0.27
- IC50 (Estrone Sulfatase; [1]): 23 nM

SMILES: CC(=O)O[C@H]1CC[C@H]2[C@@H]3CCc4cc(OS(N)(=O)=O)c(C#N)cc4[C@H]3CC[C@]12C [Compound 59, 2-Cyanoestra-1,3,5(10)-trien-17β-ol-3-O-sulfamate 17β-O-acetate]
- Estrogenic Activity (uterus): 0
- IC50 (Estrone Sulfatase; [1]): 0.3 nM

SMILES: CC(C)(C)[Si](C)(C)O[C@@H]1CC[C@H]2[C@@H]3CCc4cc(OS(N)(=O)=O)ccc4[C@H]3CC[C@]12C [Compound 52, 17α-tert-Butyldimethylsilyloxyestra-1,3,5(10)-triene-3-O-sulfamate]
- Estrogenic Activity (uterus): 0
- IC50 (Estrone Sulfatase): 0.31 nM

SMILES: CN(C)CCOC/C=C1\CC[C@H]2[C@@H]3CCc4cc(OS(N)(=O)=O)ccc4[C@H]3CC[C@]12C [Compound 39, 21-(2'-N,N-Dimethylaminoethoxy)-[17(20)E]-19-norpregna-1,3,5(10),17(20)-tetraene-3-O-sulfamate]
- Estrogenic Activity (uterus): 0
- IC50 (Estrone Sulfatase; [1]): 34 nM

SMILES: C/C=C1/CC[C@H]2[C@@H]3CCc4cc(OS(N)(=O)=O)ccc4[C@H]3CC[C@]12C [Compound 13, [17(20)Z]-19-Norpregna-1,3,5(10),17(20)-tetraene-3-O-sulfamate]
- Estrogenic Activity (uterus): 0.05
- IC50 (Estrone Sulfatase; [1]): 0.08 nM

SMILES: C[C@]12CC[C@@H]3c4cc([N+](=O)[O-])c(OS(N)(=O)=O)cc4CC[C@H]3[C@@H]1CCC2=O [Compound 78, 2-Nitroestra-1,3,5(10)-trien-17-one-3-O-sulfamate]
- Estrogenic Activity (uterus): 0
- IC50 (Estrone Sulfatase): 7 nM

SMILES: COCc1cc2c(cc1OS(N)(=O)=O)CC[C@@H]1[C@@H]2CC[C@]2(C)C(=O)CC[C@@H]12 [Compound 75, 2-Methoxymethylestra-1,3,5(10)-trien-17-one-3-O-sulfamate]
- Estrogenic Activity (uterus): 0
- IC50 (Estrone Sulfatase; [1]): 2 nM

SMILES: CC(=O)[C@H]1CC[C@H]2[C@@H]3CCc4cc(OS(N)(=O)=O)ccc4[C@H]3CC[C@]12C [Compound 10, 19-Norpregna-1,3,5(10)trien-20-one-3-O-sulfamate]
- Estrogenic Activity (uterus): 0
- IC50 (Estrone Sulfatase; [1]): 2 nM

SMILES: CC(=O)C1=CC[C@H]2[C@@H]3CCc4cc(OS(N)(=O)=O)ccc4[C@H]3CC[C@]12C [Compound 7, 19-Norpregna-1,3,5(10),16-tetraen-20-one-3-O-sulfamate]
- Estrogenic Activity (uterus): 0.66
- IC50 (Estrone Sulfatase; [1]): 0.021 nM

SMILES: CCCC[C@H]1CC[C@H]2[C@@H]3CCc4cc(OS(N)(=O)=O)ccc4[C@H]3CC[C@]12C [Compound 23, 19,21-Dinorchola-1,3,5(10)-triene-3-O-sulfamate]
- Estrogenic Activity (uterus): 0.02
- IC50 (Estrone Sulfatase; [1]): 0.096 nM

SMILES: C[C@]12CC[C@@H]3c4ccc(OS(N)(=O)=O)c([N+](=O)[O-])c4CC[C@H]3[C@@H]1CCC2=O [Compound 77, 4-Nitroestra-1,3,5(10)-trien-17-one-3-O-sulfamate]
- Estrogenic Activity (uterus): 0
- IC50 (Estrone Sulfatase; [1]): < 10 nM

SMILES: COC(=O)c1cc2c(cc1OS(N)(=O)=O)CC[C@@H]1[C@@H]2CC[C@]2(C)C(=O)CC[C@@H]12 [Compound 65, 2-Methoxycarbonylestra-1,3,5(10)-trien-17-one-3-O-sulfamate]
- Estrogenic Activity (uterus): 0
